Reference: ChEMBL document CHEMBL5380807, “Imidazo[1,2-a]Pyridine Derivatives as Novel Dual-Target Inhibitors of ABCB1 and ABCG2 for Reversing Multidrug Resistance” (J Med Chem, 2023)
Active and inactive are the calls of the source. The rule behind the calls is not given here.

How the values were obtained:
[1] = biological target: T1, Broad substrate specificity ATP-binding cassette transporter ABCG2 (Homo sapiens, UniProt Q9UNQ0); assay: Inhibition of ABCG2 (unknown origin) ATPase activity assessed as decrease in luminescence by firefly luciferase reporter assay
T1 sequence (Q9UNQ0 whole entry): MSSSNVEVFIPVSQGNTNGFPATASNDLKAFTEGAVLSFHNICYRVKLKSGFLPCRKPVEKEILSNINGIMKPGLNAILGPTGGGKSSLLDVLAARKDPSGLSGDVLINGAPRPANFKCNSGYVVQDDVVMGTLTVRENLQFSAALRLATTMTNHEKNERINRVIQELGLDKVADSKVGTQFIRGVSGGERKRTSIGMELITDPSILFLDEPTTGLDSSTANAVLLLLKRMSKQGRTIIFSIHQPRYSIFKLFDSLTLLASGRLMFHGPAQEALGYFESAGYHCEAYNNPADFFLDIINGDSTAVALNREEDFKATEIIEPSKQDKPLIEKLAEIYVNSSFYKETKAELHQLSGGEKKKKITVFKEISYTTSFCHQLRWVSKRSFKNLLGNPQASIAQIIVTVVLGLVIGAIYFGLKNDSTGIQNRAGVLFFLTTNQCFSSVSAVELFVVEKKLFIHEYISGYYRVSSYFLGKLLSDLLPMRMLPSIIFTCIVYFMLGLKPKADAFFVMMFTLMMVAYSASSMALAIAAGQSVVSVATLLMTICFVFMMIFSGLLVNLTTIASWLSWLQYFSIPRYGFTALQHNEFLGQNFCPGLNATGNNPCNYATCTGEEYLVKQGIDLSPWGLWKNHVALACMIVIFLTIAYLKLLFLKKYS

[2] = biological target: ATP-dependent translocase ABCB1 (Homo sapiens, UniProt P08183); assay: Inhibition of ABCB1 (unknown origin) ATPase activity assessed as decrease in luminescence by firefly luciferase reporter assay
[3] = Cytotoxicity against human HEK293 cells assessed as reduction in cell viability incubated for 72 hrs by SRB assay; format: toxicity, cell-based
[4] = Cytotoxicity against human HEK293 cells expressing ABCG2 assessed as reduction in cell viability incubated for 72 hrs by SRB assay; format: toxicity, cell-based
[5] = Cytotoxicity against human K562 cells assessed as decrease in cell survival rate incubated for 72 hrs by MTS assay; format: toxicity, cell-based
[6] = system: K562; assay: Reversal of ABCB1 mediated adriamycin resistance in human K562 assessed as decrease in survival rate at 1.25 to 5 uM preincubated for 1 hrs followed by adriamycin addition and measured after 72 hrs by MTS assay; format: functional, cell-based; conditions: dose 1.25-5 µM, time 73.0 hrs
[7] = system: K562; assay: Cytotoxicity against human K562 cells assessed as decrease in cell survival rate at 5 uM incubated for 72 hrs by MTS assay; format: toxicity, cell-based; conditions: k562, 72 h
[8] = system: K562; assay: Reversal of ABCB1 mediated adriamycin resistance in human K562 cells assessed as reduction in survival rate at 1 uM preincubated for 1 hrs followed by adriamycin addition and measured after 72 hrs by MTS assay; format: functional, cell-based; conditions: time 73.0 hrs
[9] = system: K562; assay: Reversal of ABCB1 mediated adriamycin resistance in human K562 cells assessed as reduction in survival rate at 5 uM preincubated for 1 hrs followed by adriamycin addition and measured after 72 hrs by MTS assay; format: functional, cell-based; conditions: time 73.0 hrs
[10] = system: K562/A02; assay: Reversal of ABCB1 mediated adriamycin resistance in human K562/A02 overexpressing ABCB1 assessed as decrease in survival rate at 1.25 to 5 uM preincubated for 1 hrs followed by adriamycin addition and measured after 72 hrs by MTS assay; format: functional, cell-based; conditions: dose 1.25-5 µM, time 73.0 hrs
[11] = system: K562/A02; assay: Reversal of ABCB1 mediated adriamycin resistance in human K562/A02 cells overexpressing ABCB1 assessed as reduction in survival rate at 5 uM preincubated for 1 hrs followed by adriamycin addition and measured after 72 hrs by MTS assay; format: functional
[12] = Cytotoxicity against human K562/A02 cells overexpressing ABCB1 assessed as decrease in cell survival rate incubated for 72 hrs by MTS assay; format: toxicity, cell-based
[13] = system: K562/A02; assay: Cytotoxicity against human K562/A02 cells overexpressing ABCB1 assessed as decrease in cell survival rate at 5 uM incubated for 72 hrs by MTS assay; format: toxicity, cell-based; conditions: k562/a02, 72 h
[14] = system: K562/A02; assay: Reversal of ABCB1 mediated adriamycin resistance in human K562/A02 cells overexpressing ABCB1 assessed as reduction in survival rate at 1 uM preincubated for 1 hrs followed by adriamycin addition and measured after 72 hrs by MTS assay; format: functional
[15] = system: K562/A02; assay: Reversal of ABCB1 mediated adriamycin resistance in human K562/A02 overexpressing ABCB1 assessed as decrease in survival rate at 5 uM preincubated for 1 hrs followed by adriamycin addition and measured after 72 hrs by MTS assay; format: functional
[16] = system: HEK293; assay: Reversal of ABCG2 mediated mitoxantrone resistance in human HEK293 assessed as decrease in survival rate at 1.25 to 5 uM preincubated for 1 hrs followed by mitoxantrone addition and measured after 72 hrs by SRB assay; format: functional, cell-based; conditions: dose 1.25-5 µM, time 73.0 hrs
[17] = system: HEK293; assay: Reversal of ABCG2 mediated mitoxantrone resistance in human HEK293 overexpressing ABCG2 assessed as decrease in survival rate at 1.25 to 5 uM preincubated for 1 hrs followed by mitoxantrone addition and measured after 72 hrs by SRB assay; format: functional, cell-based; conditions: dose 1.25-5 µM, time 73.0 hrs
[18] = system: K562/A02; assay: Reversal of ABCB1 mediated multidrug resistance in human K562/A02 cells overexpressing ABCB1 assessed as decrease in survival rate at 5 uM preincubated for 1 hrs followed by vincristine addition and measured after 72 hrs by MTS assay; format: functional; conditions: time 73 hrs
[19] = system: K562; assay: Antitumor activity against human K562 cells xenografted in BALB/c mouse assessed as tumor growth inhibition at 20 mg/kg, ip QD for 14 days in presence of adriamycin; format: functional, organism-based; conditions: time 14.0 day

ATP-dependent translocase ABCB1, sequence (P08183 whole entry): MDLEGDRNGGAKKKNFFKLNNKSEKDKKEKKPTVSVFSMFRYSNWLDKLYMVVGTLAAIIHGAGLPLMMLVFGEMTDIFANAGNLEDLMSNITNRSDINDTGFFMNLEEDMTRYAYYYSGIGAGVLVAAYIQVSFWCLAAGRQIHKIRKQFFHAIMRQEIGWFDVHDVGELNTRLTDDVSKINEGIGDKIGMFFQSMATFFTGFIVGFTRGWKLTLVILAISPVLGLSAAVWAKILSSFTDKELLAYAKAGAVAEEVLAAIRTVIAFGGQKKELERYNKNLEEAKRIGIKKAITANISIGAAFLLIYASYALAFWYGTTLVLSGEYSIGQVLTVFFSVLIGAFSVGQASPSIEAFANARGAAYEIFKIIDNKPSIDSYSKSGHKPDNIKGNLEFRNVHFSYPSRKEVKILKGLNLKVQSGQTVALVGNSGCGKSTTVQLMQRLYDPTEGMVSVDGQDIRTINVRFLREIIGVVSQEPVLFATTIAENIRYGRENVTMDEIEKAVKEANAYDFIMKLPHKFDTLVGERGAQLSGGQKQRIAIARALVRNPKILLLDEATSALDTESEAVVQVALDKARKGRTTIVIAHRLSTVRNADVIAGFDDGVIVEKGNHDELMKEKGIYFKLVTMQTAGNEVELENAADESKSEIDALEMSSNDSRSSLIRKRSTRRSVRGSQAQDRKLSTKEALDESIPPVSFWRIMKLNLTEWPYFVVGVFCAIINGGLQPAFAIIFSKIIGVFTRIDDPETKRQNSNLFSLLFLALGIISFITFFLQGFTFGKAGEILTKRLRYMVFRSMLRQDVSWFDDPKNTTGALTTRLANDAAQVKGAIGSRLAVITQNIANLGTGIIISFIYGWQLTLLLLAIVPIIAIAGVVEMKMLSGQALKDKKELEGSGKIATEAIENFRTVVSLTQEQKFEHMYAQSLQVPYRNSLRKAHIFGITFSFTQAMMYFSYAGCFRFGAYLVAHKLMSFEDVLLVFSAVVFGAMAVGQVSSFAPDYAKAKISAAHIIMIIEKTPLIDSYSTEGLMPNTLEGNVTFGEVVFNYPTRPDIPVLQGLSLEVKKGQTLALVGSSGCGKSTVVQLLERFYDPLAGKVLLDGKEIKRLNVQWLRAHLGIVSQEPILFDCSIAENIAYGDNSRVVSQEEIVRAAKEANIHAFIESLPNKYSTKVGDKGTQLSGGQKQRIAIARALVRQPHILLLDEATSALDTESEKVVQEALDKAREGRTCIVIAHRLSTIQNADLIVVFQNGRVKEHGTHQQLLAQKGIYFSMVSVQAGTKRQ

| Compound | Activity [7] | Activity [8] | Activity [9] | Activity [13] | Activity ([11]; time 73.0 hrs) | Activity ([14]; time 73.0 hrs) | other results |
| --- | --- | --- | --- | --- | --- | --- | --- |
| CC[C@@]1(O)C(=O)OCc2c1cc1n(c2=O)Cc2cc3c(CN(C)C)c(O)ccc3nc2-1 [TOPOTECAN] |  |  |  |  |  |  | inhibition (INH) [1]: Not Active; inhibition (INH) [2]: Not Active |
| O=C1c2c(O)ccc(O)c2C(=O)c2c(NCCNCCO)ccc(NCCNCCO)c21 [MITOXANTRONE] |  |  |  |  |  |  | IC50 at 72 h [3]: 0.04 µM; IC50 at 72 h [4]: 1.72 µM |
| COc1cc2c(cc1OC)CN(CC(=O)Nc1ccc(-c3nc4ccccn4c3CN3CCN(c4ccccc4)CC3)cc1)CC2 | Non-Toxic | inactive | inactive | Non-Toxic |  |  | IC50 at 72 h [5]: > 100 µM; Activity [6]: inactive; Activity [10]: Active; Activity ([11]; time 73 hrs): 33%; IC50 at 72 h [12]: > 100 µM; Activity ([14]; time 73 hrs): 59% |
| COc1cc2c(cc1OC)CN(CC(=O)Nc1ccc(-c3nc4ccccn4c3COCc3ccc(Cl)cc3)cc1)CC2 | Non-Toxic | Active | Active | Non-Toxic | Active | Active |  |
| C=CCN(CC=C)CC(=O)Nc1ccc(-c2nc3ccccn3c2CN2CCc3cc(OC)c(OC)cc3C2)cc1 |  |  |  |  |  |  | IC50 at 72 h [5]: 45.3 µM; Activity [6]: inactive; Activity [15]: <30%; IC50 at 72 h [3]: 37.6 µM; IC50 at 72 h [4]: 11.5 µM; Activity [16]: inactive; Activity [10]: Active; IC50 at 72 h [12]: 65.2 µM; Activity [17]: Active |
| COc1ccc(/C=C/C(=O)Nc2ccc(-c3nc4ccccn4c3CN3CCN(c4ccccc4)CC3)cc2)cc1 |  |  |  |  |  |  | IC50 at 72 h [5]: > 100 µM; Activity [6]: inactive; Activity [15]: <30%; IC50 at 72 h [3]: 21 µM; IC50 at 72 h [4]: 12.4 µM; Activity [16]: inactive; Activity [10]: Active; IC50 at 72 h [12]: > 100 µM; Activity [17]: Active |
| COc1ccc(CCN(C)CCCC(C#N)(c2ccc(OC)c(OC)c2)C(C)C)cc1OC (centres undefined) |  | Active | Active |  |  |  | Activity [18]: 56%; Activity [19]: inactive; Activity ([11]; time 73 hrs): 51%; inhibition (INH) [2]: Not Active; Activity ([14]; time 73 hrs): 70% |
| COc1cc2c(cc1OC)CN(CC(=O)Nc1ccc(-c3nc4ccccn4c3CN3CCN(c4ccc(OC(F)(F)F)cc4)CC3)cc1)CC2 | Non-Toxic | inactive | inactive | Non-Toxic | Active | Active |  |
| COc1ccc(COCc2c(-c3ccc(NC(=O)CN4CCc5cc(OC)c(OC)cc5C4)cc3)nc3ccccn23)cc1 | Non-Toxic | inactive | inactive | Non-Toxic | Active | Active |  |
| CC(=O)N1CCN(c2ccc(OCC3COC(Cn4ccnc4)(c4ccc(Cl)cc4Cl)O3)cc2)CC1 (centres undefined) |  |  |  |  |  |  | Activity [16]: inactive; Activity [17]: Active |
| COc1cc2c(cc1OC)CN(CC(=O)Nc1ccc(-c3cn4ccccc4n3)cc1)CC2 | Non-Toxic | inactive | inactive | Non-Toxic | Active | Active |  |
| C=CCN(CC=C)CC(=O)Nc1ccc(-c2nc3ccccn3c2CN2CCN(c3ccccc3)CC2)cc1 |  |  |  |  |  |  | IC50 at 72 h [5]: > 100 µM; Activity [6]: inactive; Activity [15]: <30%; IC50 at 72 h [3]: 11.8 µM; IC50 at 72 h [4]: 18.5 µM; Activity [16]: inactive; Activity [10]: Active; IC50 at 72 h [12]: > 100 µM; Activity [17]: Active |
| COc1cc2c(cc1OC)CN(CC(=O)Nc1ccc(-c3nc4ccccn4c3CN3CCc4cc(OC)c(OC)cc4C3)cc1)CC2 | Non-Toxic | inactive | inactive | Non-Toxic |  |  | IC50 at 72 h [5]: > 100 µM; Activity [6]: inactive; Activity [10]: Active; Activity ([11]; time 73 hrs): 39%; IC50 at 72 h [12]: > 100 µM; Activity ([14]; time 73 hrs): 61% |
| COc1cc2c(cc1OC)CN(CC(=O)Nc1ccc(-c3nc4ccccn4c3CNCc3ccccc3)cc1)CC2 | Non-Toxic | inactive | inactive | 59.82% | Active | Active |  |
| SODIUM VANADATE |  |  |  |  |  |  | inhibition (INH) [1]: Active; inhibition (INH) [2]: Active |
| COc1cc2c(cc1OC)CN(CC(=O)Nc1ccc(-c3nc4ccccn4c3CN3CCC(=O)CC3)cc1)CC2 | Non-Toxic | inactive | inactive | Non-Toxic | Active | Active |  |
| COc1cc2c(cc1OC)CN(CC(=O)Nc1ccc(-c3nc4ccccn4c3CN(C)C)cc1)CC2 | Non-Toxic | inactive | inactive | Non-Toxic | Active | Active |  |
